Source: US9593108B2, “Compounds and methods for antiviral treatment” (PTC Therapeutics, Inc., priority 2009, dated 2017)

What was measured:
[1] = system: HCV replicon RNA (GenBank Accession No. AJ242654); assay: HCV Replicon Assay (replicon RNA reduction and/or Fluc reporter signal); type: cell-based, Hepatitis C virus; details: Hepatitis C virus, 72 h, replicon-containing cells cultured with test compound for up to 3 days
Procedure, shortened: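 IC50 values mostly reflect the drop in replicon RNA, though Fluc reporter signal may also be used. Compound incubated with cells carrying the bicistronic replicon for as long as 3 days; interferon served as positive control.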

SMILES | melting point [°C] | IC50 [1] [nM]
C[C@H](NS(=O)(=O)c1ccc(-c2c(C(N)=O)c3cc(C(F)(F)F)cnc3n2C2CCC2)nc1)C(F)(F)F [Cpd 304, 1-cyclobutyl-5-(trifluoromethyl)-2-(5-{[(2S)-1,1,1-trifluoropropan-2-yl]sulfamoyl}pyridin-2-yl)-1H-pyrrolo[2,3-b]pyridine-3-carboxamide] | 219 to 221 | < 500
C[C@H](NS(=O)(=O)c1ccc(-c2c(C#N)c3cc(S(C)(=O)=O)cnc3n2C2CCCC2)nc1)C(F)(F)F [Cpd 305, 6-[3-cyano-1-cyclopentyl-5-(methylsulfonyl)-1H-pyrrolo[2,3-b]pyridin-2-yl]-N-[(2S)-1,1,1-trifluoropropan-2-yl]pyridine-3-sulfonamide] | 260 to 261 | < 500
C[C@H](NS(=O)(=O)c1ccc(-c2c(C#N)c3cc(Cl)cnc3n2-c2ccccn2)nc1)C(F)(F)F [Cpd 306, 6-[5-chloro-3-cyano-1-(pyridin-2-yl)-1H-pyrrolo[2,3-b]pyridin-2-yl]-N-[(2S)-1,1,1-trifluoropropan-2-yl]pyridine-3-sulfonamide] | 179 to 181 | < 500
C[C@H](NS(=O)(=O)c1ccc(-c2c(C#N)c3cc(Cl)cnc3n2-c2cnccn2)nc1)C(F)(F)F [Cpd 307, 6-[5-chloro-3-cyano-1-(pyrazin-2-yl)-1H-pyrrolo[2,3-b]pyridin-2-yl]-N-[(2S)-1,1,1-trifluoropropan-2-yl]pyridine-3-sulfonamide] | 247 to 249 | < 500
C[C@H](NS(=O)(=O)c1ccc(-c2c(C#N)c3cc(Cl)cnc3n2-c2ccccc2)nc1)C(F)(F)F [Cpd 308, 6-(5-chloro-3-cyano-1-phenyl-1H-pyrrolo[2,3-b]pyridin-2-yl)-N-[(2S)-1,1,1-trifluoropropan-2-yl]pyridine-3-sulfonamide] | 211 to 213 | < 500
COc1cnc2c(c1)c(C#N)c(-c1ccc(S(=O)(=O)NC3CCC3)cn1)n2C1CCC1 [Cpd 309, 6-(3-cyano-1-cyclobutyl-5-methoxy-1H-pyrrolo[2,3-b]pyridin-2-yl)-N-cyclobutylpyridine-3-sulfonamide] | 203 to 207 | < 500
COc1cnc2c(c1)c(C#N)c(-c1ccc(S(=O)(=O)NC3CC3)cn1)n2C1CCC1 [Cpd 310, 6-(3-cyano-1-cyclobutyl-5-methoxy-1H-pyrrolo[2,3-b]pyridin-2-yl)-N-cyclopropylpyridine-3-sulfonamide] | 161 to 162 | < 500
COc1cnc2c(c1)c(C#N)c(-c1ccc(S(=O)(=O)NC3(C)CC3)cn1)n2C1CCC1 [Cpd 311, 6-(3-cyano-1-cyclobutyl-5-methoxy-1H-pyrrolo[2,3-b]pyridin-2-yl)-N-(1-methylcyclopropyl)pyridine-3-sulfonamide] | 179 to 181 | < 500
COc1cnc2c(c1)c(C#N)c(-c1ncc(S(=O)(=O)NC3(C)CC3)cn1)n2C1CCC1 [Cpd 313, 2-(3-cyano-1-cyclobutyl-5-methoxy-1H-pyrrolo[2,3-b]pyridin-2-yl)-N-(1-methylcyclopropyl)pyrimidine-5-sulfonamide] | 209 to 212 | < 500
C[C@H](NS(=O)(=O)c1ccc(-c2c(C#N)c3cc(C(F)(F)F)cnc3n2-c2cnccn2)nc1)C(F)(F)F [Cpd 316, 6-[3-cyano-1-(pyrazin-2-yl)-5-(trifluoromethyl)-1H-pyrrolo[2,3-b]pyridin-2-yl]-N-[(2S)-1,1,1-trifluoropropan-2-yl]pyridine-3-sulfonamide] | 226 to 228 | < 500
C[C@H](NS(=O)(=O)c1ccc(-c2c(C#N)c3cc(C(F)(F)F)cnc3n2-c2ccccn2)nc1)C(F)(F)F [Cpd 317, 6-[3-cyano-1-(pyridin-2-yl)-5-(trifluoromethyl)-1H-pyrrolo[2,3-b]pyridin-2-yl]-N-[(2S)-1,1,1-trifluoropropan-2-yl]pyridine-3-sulfonamide] | 110 to 112 | < 500
C[C@H](NS(=O)(=O)c1ccc(-c2c(C#N)c3cc(C(F)(F)F)cnc3n2-c2ccccc2)nc1)C(F)(F)F [Cpd 318, 6-[3-cyano-1-phenyl-5-(trifluoromethyl)-1H-pyrrolo[2,3-b]pyridin-2-yl]-N-[(2S)-1,1,1-trifluoropropan-2-yl]pyridine-3-sulfonamide] | 186 to 188 | < 500
C[C@H](NS(=O)(=O)c1ccc(-c2c(C#N)c3cc(F)cnc3n2-c2ncccn2)nc1)C(F)(F)F [Cpd 320, 6-[3-cyano-5-fluoro-1-(pyrimidin-2-yl)-1H-pyrrolo[2,3-b]pyridin-2-yl]-N-[(2S)-1,1,1-trifluoropropan-2-yl]pyridine-3-sulfonamide] | 171 to 173 | < 500
C[C@H](NS(=O)(=O)c1ccc(-c2c(C#N)c3cc(F)cnc3n2-c2cnccn2)nc1)C(F)(F)F [Cpd 321, 6-[3-cyano-5-fluoro-1-(pyrazin-2-yl)-1H-pyrrolo[2,3-b]pyridin-2-yl]-N-[(2S)-1,1,1-trifluoropropan-2-yl]pyridine-3-sulfonamide] | 212 to 214 | < 500
C[C@H](NS(=O)(=O)c1ccc(-c2c(C#N)c3cc(F)cnc3n2-c2ccccn2)nc1)C(F)(F)F [Cpd 322, 6-[3-cyano-5-fluoro-1-(pyridin-2-yl)-1H-pyrrolo[2,3-b]pyridin-2-yl]-N-[(2S)-1,1,1-trifluoropropan-2-yl]pyridine-3-sulfonamide] | 229 to 231 | < 500
CSc1cnc2c(c1)c(C#N)c(-c1ccc(S(=O)(=O)N[C@@H](C)C(F)(F)F)cn1)n2C1CCC1 [Cpd 323, 6-[3-cyano-1-cyclobutyl-5-(methylsulfanyl)-1H-pyrrolo[2,3-b]pyridin-2-yl]-N-[(2S)-1,1,1-trifluoropropan-2-yl]pyridine-3-sulfonamide] | 154 to 158 | < 500
C[C@H](NS(=O)(=O)c1ccc(-c2c(C(N)=O)c3cc(Cl)cnc3n2C2CCCC2)nc1)C(F)(F)F [Cpd 324, 5-chloro-1-cyclopentyl-2-(5-{[(2S)-1,1,1-trifluoropropan-2-yl]sulfamoyl}pyridin-2-yl)-1H-pyrrolo[2,3-b]pyridine-3-carboxamide] | 289 to 295 | < 500
NC(=O)c1c(-c2ccc(S(=O)(=O)NC3(C(F)(F)F)CC3)cn2)n(C2CCC2)c2ncc(Cl)cc12 [Cpd 325, 5-chloro-1-cyclobutyl-2-(5-{[1-(trifluoromethyl)cyclopropyl]sulfamoyl}pyridin-2-yl)-1H-pyrrolo[2,3-b]pyridine-3-carboxamide] | 238 to 240 | < 500
CC(C)(NS(=O)(=O)c1ccc(-c2c(C(N)=O)c3cc(Cl)cnc3n2C2CCC2)nc1)C(F)(F)F [Cpd 326, 5-chloro-1-cyclobutyl-2-{5-[(1,1,1-trifluoro-2-methylpropan-2-yl)sulfamoyl]pyridin-2-yl}-1H-pyrrolo[2,3-b]pyridine-3-carboxamide] | 239 to 241 | < 500
CC(C)(C)NS(=O)(=O)c1ccc(-c2c(C(N)=O)c3cc(Cl)cnc3n2C2CCC2)nc1 [Cpd 327, 2-[5-(tert-butylsulfamoyl)pyridin-2-yl]-5-chloro-1-cyclobutyl-1H-pyrrolo[2,3-b]pyridine-3-carboxamide] | 240 to 241 | < 500
NC(=O)c1c(-c2ccc(S(=O)(=O)NC3(C(F)(F)F)CC3)cc2)n(C2CCC2)c2ncc(Cl)cc12 [Cpd 328, 5-chloro-1-cyclobutyl-2-(4-{[1-(trifluoromethyl)cyclopropyl]sulfamoyl}phenyl)-1H-pyrrolo[2,3-b]pyridine-3-carboxamide] | 271 to 272 | < 500
CC(C)(NS(=O)(=O)c1ccc(-c2c(C(N)=O)c3cc(Cl)cnc3n2C2CCC2)cc1)C(F)(F)F [Cpd 329, 5-chloro-1-cyclobutyl-2-{4-[(1,1,1-trifluoro-2-methylpropan-2-yl)sulfamoyl]phenyl}-1H-pyrrolo[2,3-b]pyridine-3-carboxamide] | 263 to 265 | < 500
COc1ccc(-n2c(-c3ccc(S(=O)(=O)N[C@@H](C)C(F)(F)F)cn3)c(C#N)c3cc(C(F)(F)F)cnc32)nc1 [Cpd 332, 6-[3-cyano-1-(5-methoxypyridin-2-yl)-5-(trifluoromethyl)-1H-pyrrolo[2,3-b]pyridin-2-yl]-N-[(2S)-1,1,1-trifluoropropan-2-yl]pyridine-3-sulfonamide] | 203 to 206 | 500 to 2000
COc1ccnc(-n2c(-c3ccc(S(=O)(=O)N[C@@H](C)C(F)(F)F)cn3)c(C#N)c3cc(C(F)(F)F)cnc32)n1 [Cpd 333, 6-[3-cyano-1-(4-methoxypyrimidin-2-yl)-5-(trifluoromethyl)-1H-pyrrolo[2,3-b]pyridin-2-yl]-N-[(2S)-1,1,1-trifluoropropan-2-yl]pyridine-3-sulfonamide] | 209 to 211 | 2000 to 5000
CC(C)(C)NS(=O)(=O)c1ccc(-c2c(C#N)c3cc(C(F)(F)F)cnc3n2-c2ncccn2)cc1 [Cpd 334, N-tert-butyl-4-[3-cyano-1-(pyrimidin-2-yl)-5-(trifluoromethyl)-1H-pyrrolo[2,3-b]pyridin-2-yl]benzenesulfonamide] | 228 to 230 | 2000 to 5000
CC(C)(C)NS(=O)(=O)c1ccc(-c2c(C#N)c3cc(C(F)(F)F)cnc3n2-c2cnccn2)cc1 [Cpd 335, N-tert-butyl-4-[3-cyano-1-(pyrazin-2-yl)-5-(trifluoromethyl)-1H-pyrrolo[2,3-b]pyridin-2-yl]benzenesulfonamide] | 190 to 192 | < 500
CC(C)(C)NS(=O)(=O)c1ccc(-c2c(C#N)c3cc(C(F)(F)F)cnc3n2-c2ccccn2)cc1 [Cpd 336, N-tert-butyl-4-[3-cyano-1-(pyridin-2-yl)-5-(trifluoromethyl)-1H-pyrrolo[2,3-b]pyridin-2-yl]benzenesulfonamide] | 227 to 230 | 500 to 2000
